Like-named read-outs stand apart in the source and are kept apart here.
How the values were obtained:
[1] = target: human sEH (Homo sapiens (Human), UniProt P34913); assay: Inhibition of human soluble epoxide hydrolase (IC50; one of three substrate methods); assay type: biochemical;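 note: enzyme expressed in baculovirus and affinity-purified, assays run in triplicate, with substrate and read-out differing among the three methods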
[2] = Pharmacokinetic screening in dogs, oral administration, plasma LC-MS/MS; settings: dog, plasma, po, 0.3 mg/kg

Chain of human sEH (P34913 whole entry): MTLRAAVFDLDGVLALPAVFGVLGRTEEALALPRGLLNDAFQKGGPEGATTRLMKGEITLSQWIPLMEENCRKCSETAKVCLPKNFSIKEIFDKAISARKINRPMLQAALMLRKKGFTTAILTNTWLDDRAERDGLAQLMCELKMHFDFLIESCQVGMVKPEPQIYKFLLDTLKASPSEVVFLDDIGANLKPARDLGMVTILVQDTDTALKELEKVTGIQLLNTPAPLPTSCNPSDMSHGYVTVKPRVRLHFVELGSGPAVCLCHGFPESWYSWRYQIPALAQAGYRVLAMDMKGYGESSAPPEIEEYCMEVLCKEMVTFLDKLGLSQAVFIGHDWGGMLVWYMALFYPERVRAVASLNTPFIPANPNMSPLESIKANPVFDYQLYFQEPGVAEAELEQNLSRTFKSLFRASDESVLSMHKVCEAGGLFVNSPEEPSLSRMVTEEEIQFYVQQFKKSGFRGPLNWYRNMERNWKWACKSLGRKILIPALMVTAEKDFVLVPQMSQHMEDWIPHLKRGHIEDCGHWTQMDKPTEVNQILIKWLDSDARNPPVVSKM

| Compound | IC50 ([1]; recombinant human sEH) | further results |
| --- | --- | --- |
| O=C(N1CCC(NC(=O)C23CC4CC(CC(C4)C2)C3)CC1)C(F)(F)F [Compound 1643, Adamantane-1-carboxylic acid [1-(2,2,2-trifluoro-acetyl)-piperidin-4-yl]-amide] | 4.21 µM |  |
| O=C(NC1CCCCC1)NC12CN3CN(CN(C3)C1)C2 [Compound 1549, 1-Cyclohexyl-3-(1,3,5-triaza-tricyclo[3.3.1.1^3.7]dec-7-yl)-urea] | 13.6 µM |  |
| O=C(O)CCC(=O)N1CCC(CNC(=O)NC23CC4CC(CC(C4)C2)C3)CC1 [Compound 1502, 4-{4-[(3-Adamantan-1-yl-ureido)-methyl]-piperidin-1-yl}-4-oxo-butanoic acid] | 0.175 µM |  |
| O=C(NCc1cccnc1)Oc1cccc(-c2ccccc2)c1 [Compound 1559, Pyridin-3-ylmethyl-carbamic acid biphenyl-3-yl ester] | 23 µM |  |
| O=C(NCC1CCN(C(=O)c2ccccc2C(=O)O)CC1)NC12CC3CC(CC(C3)C1)C2 [Compound 1506, 2-{4-[(3-Adamantan-1-yl-ureido)-methyl]-piperidine-1-carbonyl}-benzoic acid] | 0.407 µM |  |
| Morpholine-4-carboxylic acid 2-methyl-biphenyl-3-ylmethyl ester [Compound 1562] | 12 µM |  |
| O=C(NCC1CCN(C(=O)c2cccc(C(=O)O)c2)CC1)NC12CC3CC(CC(C3)C1)C2 [Compound 1504, 3-{4-[(3-Adamantan-1-yl-ureido)-methyl]-piperidine-1-carbonyl}-benzoic acid] | 0.0436 µM |  |
| O=C(O)CCCC(=O)N1CCC(NC(=O)NC23CC4CC(CC(C4)C2)C3)CC1 [Compound 1501, 5-[4-(3-Adamantan-1-yl-ureido)-piperidin-1-yl]-5-oxo-pentanoic acid] |  | IC50 [1]: 0.0728 µM |
| O=C(NC1CCN(C(=O)c2ccc(C(=O)O)cc2)CC1)NC12CC3CC(CC(C3)C1)C2 [Compound 1523, 4-[4-(3-Adamantan-1-yl-ureido)-piperidine-1-carbonyl]-benzoic acid] |  | IC50 [1]: 0.0033 µM |
| O=C(NC1CCN(C(=O)c2cccc(C(=O)O)c2)CC1)NC12CC3CC(CC(C3)C1)C2 [Compound 1505, 3-[4-(3-Adamantan-1-yl-ureido)-piperidine-1-carbonyl]-benzoic acid] |  | IC50 [1]: 0.0101 µM |
| COC(=O)c1cccc(C(=O)N2CCC(NC(=O)NC34CC5CC(CC(C5)C3)C4)CC2)c1 [Compound 1203, 3-[4-(3-Adamantan-1-yl-ureido)-piperidine-1-carbonyl]-benzoic acid methyl ester] |  | IC50 [1]: 0.0011 µM |
| O=C(NC1CCNCC1)NC1CCNCC1 [Compound 1604, 1,3-Di-piperidin-4-yl-urea] | 100 µM |  |
| O=C(NC1CCN(C(=O)c2ccncc2)CC1)NC12CC3CC(CC(C3)C1)C2 [Compound 1433, N-(1-(pyridine-4-carbonyl)piperidin-4-yl)-N′-(adamant-1-yl)urea] |  | IC50 [1]: 0.0017 µM |
| CCCCCCCCCCCCNC(=O)Nc1ccc2[nH]ccc2c1 [Compound 1553, 1-Dodecyl-3-(1H-indol-5-yl)-urea] | 0.639 µM |  |
| CC(=O)N1CCC(NC(=O)C23CC4CC(CC(C4)C2)C3)CC1 [Compound 1641, Adamantane-1-carboxylic acid (1-acetyl-piperidin-4-yl)-amide] | 12.6 µM |  |
| CC(=O)N1CCC(CNC(=O)NC23CC4CC(CC(C4)C2)C3)CC1 [Compound 1156, N-((1-acetylpiperidin-4-yl)methyl)-N′-(adamant-1-yl)urea] |  | AUC [2]: 0.0817 µM·h |
| O=C(NCc1ccncc1)Oc1cccc(-c2ccccc2)c1 [Compound 1557, Pyridin-4 ylmethyl-carbamic acid biphenyl-3-yl ester] | 11.5 µM |  |
| O=C(O)CCC(=O)N1CCC(NC(=O)NC23CC4CC(CC(C4)C2)C3)CC1 [Compound 1503, 4-[4-(3-Adamantan-1-yl-ureido)-piperidin-1-yl]-4-oxo-butanoic acid] | 0.255 µM |  |

The remaining compounds from weak to strong by IC50 ([1]; recombinant human sEH), led by results:

| IC50 ([1]; recombinant human sEH) | Compound | further results |
| --- | --- | --- |
| 0.0425 µM | CCCCCCCCCCCCNC(=O)NC1CCNCC1 [Compound 1550, 1-Dodecyl-3-piperidin-4-yl-urea] |  |
| 0.0416 µM | O=C(O)CCCC(=O)N1CCC(CNC(=O)NC23CC4CC(CC(C4)C2)C3)CC1 [Compound 1500, 5-{4-[(3-Adamantan-1-yl-ureido)-methyl]-piperidin-1-yl}-5-oxo-pentanoic acid] |  |
| 0.0118 µM | O=C(NCC1CCN(C(=O)c2ccc(C(=O)O)cc2)CC1)NC12CC3CC(CC(C3)C1)C2 [Compound 1522, 4-{4-[(3-Adamantan-1-yl-ureido)-methyl]-piperidine-1-carbonyl}-benzoic acid] |  |
| 0.0087 µM | CCC(=O)N1CCC(CNC(=O)NC23CC4CC(CC(C4)C2)C3)CC1 [Compound 1162, N-((1-propanoylpiperidin-4-yl)methyl)-N′-(adamant-1-yl)urea] |  |
| 0.0076 µM | O=C(NCC1CCN(C(=O)c2ccccn2)CC1)NC12CC3CC(CC(C3)C1)C2 [Compound 1207] |  |
| 0.0073 µM | O=C(NCC1CCN(C(=O)c2cccnc2)CC1)NC12CC3CC(CC(C3)C1)C2 [Compound 1436, N-((1-(pyridine-3-carbonyl)piperidin-4-yl)methyl)-N′-(adamant-1-yl)urea] |  |
| 0.0067 µM | CCCC(=O)N1CCC(CNC(=O)NC23CC4CC(CC(C4)C2)C3)CC1 [Compound 1120, N-((1-butyrylpiperidin-4-yl)methyl)-N′-(adamant-1-yl)urea] |  |
| 0.0062 µM | COC(=O)CCC(=O)N1CCC(CNC(=O)NC23CC4CC(CC(C4)C2)C3)CC1 [Compound 1208, 4-{4-[(3-Adamantan-1-yl-ureido)-methyl]-piperidin-1-yl}-4-oxo-butanoic acid methyl ester] |  |
| 0.0043 µM | CC(C)(C)OC(=O)N1CCC(NC(=O)NC2CCCCC2)CC1 [Compound 1551, 4-(3-Cyclohexyl-ureido)-piperidine-1-carboxylic acid tert-butyl ester] |  |
| 0.0041 µM | COC(=O)c1cccc(C(=O)N2CCC(CNC(=O)NC34CC5CC(CC(C5)C3)C4)CC2)c1 [Compound 1209, 3-{4-[(3-Adamantan-1-yl-ureido)-methyl]-piperidine-1-carbonyl}-benzoic acid methy ester] |  |
| 0.0034 µM | COC(=O)CCCC(=O)N1CCC(CNC(=O)NC23CC4CC(CC(C4)C2)C3)CC1 [Compound 1212, 5-{4-[(3-Adamantan-1-yl-ureido)-methyl]-piperidin-1-yl}-5-oxo-pentanoic acid methyl ester] |  |
| 0.0018 µM | COC(=O)c1ccccc1C(=O)N1CCC(CNC(=O)NC23CC4CC(CC(C4)C2)C3)CC1 [Compound 1210, 2-{4-[(3-Adamantan-1-yl-ureido)-methyl]-piperidine-1-carbonyl}-benzoic acid methy ester] |  |
| 0.0017 µM | COC(=O)c1ccccc1C(=O)N1CCC(NC(=O)NC23CC4CC(CC(C4)C2)C3)CC1 [Compound 1202, 2-[4-(3-Adamantan-1-yl-ureido)-piperidine-1-carbonyl]-benzoic acid methyl ester] |  |
| 0.0008 µM | CN(C)c1cccc2c(S(=O)(=O)N3CCC(NC(=O)Nc4ccc(OC(F)(F)F)cc4)CC3)cccc12 [Compound 1710, 1-[1-(5-dimethylamino-naphthalene-1-sulfonyl)-piperidin-4-yl]-3-(4-trifluoromethoxy-phenyl)-urea] |  |
| 0.0004 µM | O=C(Nc1ccc(OC(F)(F)F)cc1)NC1CCN(C(=O)C(F)(F)F)CC1 [Compound 1591, 1-[1-(2,2,2-Trifluoro-acetyl)-piperidin-4-yl]-3-(4-trifluoromethoxy-phenyl)-urea] |  |
